Data as given in US20080085867A1, “Early detection and prognosis of colon cancers” (The Johns Hopkins University, priority 2006, published 2008).

Experiments:
HCT116 cells = assay: Microarray gene expression of drug-treated cells versus mock-treated cells; type: cell-based, human; details: for expression response of the 11 hypermethylated guide genes: 300 nM TSA 18 hours or 5 μM DAC 96 hours
Method: Cell culture and treatment. HCT116 cells and isogenic genetic knockout derivatives were maintained as previously described (Rhee et al^1). For drug treatments, log phase HCT116 cells were cultured in McCoys 5A media (Invitrogen) containing 10% BCS and 1× penicillin/streptomycin with 5 μM 5-aza-deoxycytidine (DAC) (Sigma; stock solution: 1 mM in PBS) for 96 hours, replacing media and DAC every 24 hours. Cell treatment with 300 nM Trichostatin A (Sigma; stock solution: 1.5 mM dissolved in Ethanol) was performed for 18 hours. Control cells underwent mock treatment in parallel with addition of equal volume of PBS without drugs.
Microarray analysis. Total RNA was harvested from log phase cells using the Qiagen kit according to the manufacturers instructions, including a DNAase step. RNA was quantified using the Nanoprop ND-100 followed by quality assessment with 2100 Bioanalyzer (Agilent Technologies). RNA concentrations for individual samples were greater than 200 ng/ul, with 28 s/18 s ratios greater than 2.2 and RNA integrity numbers of 10. Sample amplification and labeling procedures were carried out using the Low RNA Input Fluorescent Linear Amplification Kit (Agilent Technologies) according to the manufacturers instructions. The labeled cRNA was purified using the RNeasy mini kit (Qiagen) and quantified. RNA spike-in controls (Agilent Technologies) were added to RNA samples before amplification. 0.75 microgram of samples labeled with Cy3 or Cy5 were mixed with control targets (Agilent Technologies), assembled on Oligo Microarray, hybridized, and processed according to the Agilent microarray protocol. Scanning was performed with the Agilent G2565BA microarray scanner under default settings recommended by Agilent Technologies.
Data analysis. All arrays were subject to quality checks recommended by the manufacturer. […] The log ratio of red signal to green signal was calculated after background-subtraction and LoEss normalization as implemented in the limma package from Bioconductor (Smyth et al. 1; Smyth et al. 2). […]

colorectal cell lines = assay: RT-PCR re-expression of Neuralized and FOXL2 in colorectal cancer cell lines; type: cell-based, human; details: DAC treatment, panel of colorectal cell lines
Method: Cell culture and treatment. HCT116 cells and isogenic genetic knockout derivatives were maintained as previously described (Rhee et al^1). For drug treatments, log phase HCT116 cells were cultured in McCoys 5A media (Invitrogen) containing 10% BCS and 1× penicillin/streptomycin with 5 μM 5-aza-deoxycytidine (DAC) (Sigma; stock solution: 1 mM in PBS) for 96 hours, replacing media and DAC every 24 hours. Cell treatment with 300 nM Trichostatin A (Sigma; stock solution: 1.5 mM dissolved in Ethanol) was performed for 18 hours. Control cells underwent mock treatment in parallel with addition of equal volume of PBS without drugs. Methylation and gene expression analysis. RNA was isolated with TRIzolTM Reagent (Invitrogen) according to the manufacturer's instructions. For reverse transcription-PCR (RT-PCR), 1 μg of total RNA was reverse transcribed by using Ready-To-GoTM You-Prime First-Strand Beads (Amersham Biosciences) with addition of random hexamers (0.2 μg per reaction). […] For MSP analysis, DNA was extracted following a standard phenol-chloroform extraction method. Bisulfite modification of genomic DNA was carried out using the EZ DNA methylation KitTM (Zymo Research). […] MSP was performed as previously described (Herman et al.). […]

SMILES	expression response of the 11 hypermethylated guide genes (HCT116 cells)	DAC induced expression for genes in the TSA non-response zone (HCT116 cells; 5 μM DAC, 96 hours) [fold]	re-expression of hypermethylated Neuralized and FOXL2 genes (colorectal cell lines)
Nc1ncn([C@H]2C[C@H](O)[C@@H](CO)O2)c(=O)n1 [DAC, 5-aza-deoxycytidine]	four (SFRP1, TFF2, TFF3, and CHFR) demonstrated re-expression responses near the top	> 2	ability to re-express the genes
CC(/C=C/C(=O)NO)=C\[C@@H](C)C(=O)c1ccc(N(C)C)cc1 [TSA, Trichostatin A]	remained within the TSA non-responsive zone	–	–
